Results published in patent US11180657B2, “Polysulfonated fluorescence dyes” (ATTO-TEC GmbH, priority 2017, dated 2021).
Marks after values point to notes of the source that are not given here.

Tests used:
[1] = Absorption maximum of the dye; format: physicochemical
Text: (§1) Examples of the compounds according to the invention are listed in Tables 2-6, where the structures as well as the absorption and fluorescence maxima are indicated. The spectra of selected compounds are shown FIGS. 5-18.

[2] = Fluorescence maximum of the dye; format: physicochemical; settings: solvent PBS pH 7.4
Text: as §1

Row | SMILES | λabs ([1]; solvent water/acetonitrile 1:1) | λfl [2] | λabs ([1]; solvent PBS pH 7.4) | λabs ([1]; solvent ethanol) [nm]
1 | CN(CCCC(=O)O)C(=O)c1ccccc1C1=c2cc3c(cc2Oc2cc4c(cc21)CCCN4Cc1ccc(S(=O)(=O)O)cc1S(=O)(=O)O)=[N+](Cc1ccc(S(=O)(=O)O)cc1S(=O)(=O)O)CCC3 [Compound 28] | 567^c nm |  |  | 
2 | CC1(C)c2cc3c(cc2N=c2cc4c(cc21)=[N+](CCCC(=O)O)C(C)(C)C=C4CS(=O)(=O)O)C(CS(=O)(=O)O)=CC(C)(C)N3Cc1ccc(S(=O)(=O)O)cc1S(=O)(=O)O [Compound 104] |  | 778^b nm | 758^b nm | 
3 | CC1(C)C=C(CS(=O)(=O)O)c2cc3c(cc2N1CCCC(=O)O)[Si](C)(C)c1cc2c(cc1=C3)C(CS(=O)(=O)O)=CC(C)(C)[N+]=2CS(=O)(=O)O [Compound 91] |  | 738^b nm | 715^b nm | 
4 | O=C(O)c1ccccc1-c1c2cc/c(=N/CCc3ccc(S(=O)(=O)O)cc3S(=O)(=O)O)cc-2oc2cc(NCCc3ccc(S(=O)(=O)O)cc3S(=O)(=O)O)ccc12 [Compound 23] | 532^c nm | 559^b nm |  | 
5 | O=C(O)c1ccccc1-c1c2cc/c(=N/Cc3ccc(S(=O)(=O)O)cc3S(=O)(=O)O)cc-2oc2cc(NCc3ccc(S(=O)(=O)O)cc3S(=O)(=O)O)ccc12 [Compound 4] | 536^c nm | 559^b nm |  | 
6 | CN(CCCC(=O)O)C(=O)c1ccccc1C1=C2C=C/C(=[N+](\C)Cc3ccc(S(=O)(=O)O)cc3S(=O)(=O)O)C=C2[Si](C)(C)c2cc(N(C)Cc3ccc(S(=O)(=O)O)cc3S(=O)(=O)O)ccc21 [Compound 69] |  | 680^b nm | 658^b nm | 
7 | CN(Cc1ccc(S(=O)(=O)O)cc1S(=O)(=O)O)c1ccc2c(c1)C(C)(C)C1=C/C(=[N+](/C)Cc3ccc(S(=O)(=O)O)cc3S(=O)(=O)O)C=CC1=C2c1c(F)c(F)c(SCC(=O)O)c(F)c1F [Compound 47] |  | 666^b nm | 645^b nm | 
8 | Cc1c(CC(=O)O)c(=O)oc2cc(Nc3nc(Cl)nc(NCCS(=O)(=O)O)n3)ccc12 [Compound 112] |  | 416^b nm | 338^b nm | 
9 | CN(CCCC(=O)O)C(=O)c1c(-c2c3cc/c(=N/Cc4ccc(S(=O)(=O)O)cc4S(=O)(=O)O)c(S(=O)(=O)O)c-3oc3c(S(=O)(=O)O)c(NCc4ccc(S(=O)(=O)O)cc4S(=O)(=O)O)ccc23)cc(S(=O)(=O)O)cc1S(=O)(=O)O [Compound 32] | 530^c nm |  |  | 
10 | CN(CCCC(=O)O)C(=O)c1ccccc1C1=c2cc3c(cc2[Si](C)(C)c2cc4c(cc21)C(CS(=O)(=O)O)CC(C)(C)N4Cc1ccc(S(=O)(=O)O)cc1S(=O)(=O)O)=[N+](Cc1ccc(S(=O)(=O)O)cc1S(=O)(=O)O)C(C)(C)CC3CS(=O)(=O)O (centres unmarked) [Compound 73] |  | 708^b nm | 686^b nm | 
11 | CN(C)c1ccc2c(c1)C(C)(C)c1cc3c(cc1=C2NCCCCCC(=O)O)CCC[N+]=3Cc1ccc(S(=O)(=O)O)cc1S(=O)(=O)O [Compound 78] |  | 609^b nm | 463 nm | 468
12 | CC1(C)C=C(CS(=O)(=O)O)c2cc3c(cc2N1Cc1ccc(S(=O)(=O)O)cc1S(=O)(=O)O)[Si](C)(C)c1cc2c(cc1=C3c1cc(C(=O)O)ccc1C(=O)O)C(CS(=O)(=O)O)=CC(C)(C)[N+]=2Cc1ccc(S(=O)(=O)O)cc1S(=O)(=O)O [Compound 72] |  | 740^b nm | 711^b nm | 
13 | CN(CCCC(=O)O)C(=O)c1cc2ccccc2cc1-c1c2cc/c(=N/Cc3ccc(S(=O)(=O)O)cc3S(=O)(=O)O)c(S(=O)(=O)O)c-2oc2c(S(=O)(=O)O)c(NCc3ccc(S(=O)(=O)O)cc3S(=O)(=O)O)ccc12.CS(=O)(=O)O.CS(=O)(=O)O [Compound 33] | 539^c nm |  |  | 
14 | CN(CCCC(=O)O)C(=O)c1ccccc1C1=c2cc3c(cc2[Si](C)(C)c2cc4c(cc21)C(CS(=O)(=O)O)=CC(C)(C)N4Cc1ccc(S(=O)(=O)O)cc1S(=O)(=O)O)=[N+](Cc1ccc(S(=O)(=O)O)cc1S(=O)(=O)O)C(C)(C)C=C3CS(=O)(=O)O [Compound 71] |  | 752^b nm | 722^b nm | 
15 | CC1(C)CC(CS(=O)(=O)O)c2cc3c(cc2N1Cc1ccc(S(=O)(=O)O)cc1S(=O)(=O)O)[Si](C)(C)c1cc2c(cc1=C3c1cc(C(=O)O)ccc1C(=O)O)C(CS(=O)(=O)O)CC(C)(C)[N+]=2Cc1ccc(S(=O)(=O)O)cc1S(=O)(=O)O (centres unmarked) [Compound 74] |  | 698^b nm | 675^b nm | 
16 | CC1(C)CC(CS(=O)(=O)O)c2cc3c(cc2=[N+]1CCCC(=O)O)Oc1cc(N(Cc2ccc(S(=O)(=O)O)cc2S(=O)(=O)O)Cc2ccc(S(=O)(=O)O)cc2S(=O)(=O)O)ccc1N=3 (centres unmarked) [Compound 97] |  | 667^b nm | 649^b nm | 
17 | CC1(C)C=C(CS(=O)(=O)O)c2cc3c(cc2N1Cc1ccc(S(=O)(=O)O)cc1S(=O)(=O)O)Oc1cc2c(cc1=N3)C(CS(=O)(=O)O)=CC(C)(C)[N+]=2CCCC(=O)O [Compound 100] |  | 718^b nm | 701^b nm | 
18 | CN(CCCC(=O)O)C(=O)c1ccccc1-c1c2cc/c(=N/Cc3cc(S(=O)(=O)O)c4cc(S(=O)(=O)O)cc(S(=O)(=O)O)c4c3)c(S(=O)(=O)O)c-2oc2c(S(=O)(=O)O)c(NCc3cc(S(=O)(=O)O)c4cc(S(=O)(=O)O)cc(S(=O)(=O)O)c4c3)ccc12 [Compound 34] |  |  | 530^b nm | 
19 | CC1(C)c2cc3c(cc2C(c2c(F)c(F)c(SCC(=O)O)c(F)c2F)=c2cc4c(cc21)=[N+](Cc1ccc(S(=O)(=O)O)cc1S(=O)(=O)O)C(C)(C)CC4CS(=O)(=O)O)C(CS(=O)(=O)O)=CC(C)(C)N3Cc1ccc(S(=O)(=O)O)cc1S(=O)(=O)O (centres unmarked) [Compound 40] |  | 720^b nm | 699^b nm | 

Row | SMILES | λabs ([1]; solvent water/acetonitrile 1:1) | λfl [2] | λabs ([1]; solvent PBS pH 7.4) | λabs ([1]; solvent ethanol) [nm]
20 | C[N+](C)=C1C=CC2=C(NC(CCS(=O)(=O)O)C(=O)O)c3cc4c(cc3C(C)(C)C2=C1)N(Cc1ccc(S(=O)(=O)O)cc1S(=O)(=O)O)CCC4 (centres unmarked) [Compound 85] |  | 673^b nm | 496^b nm | 
21 | Cc1c(CC(=O)O)c(=O)oc2cc(NCc3ccc(S(=O)(=O)O)cc3S(=O)(=O)O)c(S(=O)(=O)O)cc12 [Compound 111] |  | 449^b nm | 348^b nm | 
22 | CCN1c2cc3c(cc2C(CS(=O)(=O)O)=CC1(C)C)C(c1n(C)cc[n+]1CCCC(=O)O)=c1cc2c(cc1C3(C)C)=[N+](Cc1ccc(S(=O)(=O)O)cc1S(=O)(=O)O)CCC2 [Compound 56] |  | 746^b nm | 724^b nm | 
23 | CC1(C)c2cc3c(cc2C(c2c(F)c(F)c(SCCS(=O)(=O)O)c(F)c2F)=c2cc4c(cc21)=[N+](Cc1ccc(S(=O)(=O)O)cc1S(=O)(=O)O)C(C)(C)C=C4CS(=O)(=O)O)CCCN3CCCC(=O)O [Compound 48] |  | 705^b nm | 682^b nm | 
24 | CN(Cc1ccc(S(=O)(=O)O)cc1S(=O)(=O)O)c1ccc2c(c1)[Si](C)(C)C1=C/C(=[N+](/C)Cc3ccc(S(=O)(=O)O)cc3S(=O)(=O)O)C=CC1=C2C#N [Compound 89] |  | 763^b nm | 746^b nm | 
25 | CC1(C)C=C(CS(=O)(=O)O)c2cc3c(cc2=[N+]1CCCC(=O)O)Oc1cc2c(cc1N=3)CCCN2Cc1ccc(S(=O)(=O)O)cc1S(=O)(=O)O [Compound 99] |  | 700^b nm | 682^b nm | 
26 | CC1(C)c2cc3c(cc2C(NCC(S(=O)(=O)O)S(=O)(=O)O)=c2cc4c(cc21)=[N+](Cc1ccc(S(=O)(=O)O)cc1S(=O)(=O)O)C(C)(C)C=C4CS(=O)(=O)O)CCCN3CCCC(=O)O [Compound 84] |  | 644^b nm | 490^b nm | 
27 | CN(CCCC(=O)O)C(=O)c1ccccc1-c1c2cc/c(=N/Cc3ccc(S(=O)(=O)O)cc3S(=O)(=O)O)c(S(=O)(=O)O)c-2oc2c(S(=O)(=O)O)c(NCc3ccc(S(=O)(=O)O)cc3S(=O)(=O)O)ccc12 [Compound 29] | 531^c nm |  |  | 
28 | CC[N+]1=c2cc3c(cc2C(CS(=O)(=O)O)=CC1(C)C)=C(c1ccc(C(=O)O)cc1)c1cc2c(cc1C3(C)C)N(Cc1ccc(S(=O)(=O)O)cc1S(=O)(=O)O)C(C)(C)C=C2CS(=O)(=O)O [Compound 64] |  | 697^b nm | 667^b nm | 
29 | Cc1cc(=O)n(CC(=O)O)c2cc(NCc3ccc(S(=O)(=O)O)cc3S(=O)(=O)O)ccc12 [Compound 107] |  | 413^b nm | 351^b nm | 
30 | CC[N+]1=c2cc3c(cc2C(CS(=O)(=O)O)=CC1(C)C)=C(c1c(F)c(F)c(SCC(=O)O)c(F)c1F)c1cc2c(cc1C3(C)C)N(Cc1ccc(S(=O)(=O)O)cc1S(=O)(=O)O)CCC2 [Compound 43] |  | 704^b nm | 684^b nm | 
31 | CN(CCCC(=O)O)C(=O)c1ccccc1-c1c2cc/c(=N/Cc3ccc(S(=O)(=O)O)cc3S(=O)(=O)O)cc-2oc2cc(NCc3ccc(S(=O)(=O)O)cc3S(=O)(=O)O)ccc12 [Compound 13] | 534^c nm | 555^b nm |  | 
32 | CCN(CS(=O)(=O)O)c1ccc2c(c1)[Si](C)(C)C1=C/C(=[N+](/CC)CS(=O)(=O)O)C=CC1=C2NCC(S(=O)(=O)O)S(=O)(=O)O [Compound 88] |  | 605^b nm | 471^b nm | 
33 | Cc1cc(=O)n(CC(=O)O)c2cc(Nc3nc(NCCS(=O)(=O)O)nc(NCCS(=O)(=O)O)n3)ccc12 [Compound 115] |  | 383^b nm | 335^b nm | 
34 | CN(C)c1ccc2c(c1)C(C)(C)c1cc3c(cc1=C2)CCC[N+]=3Cc1ccc(S(=O)(=O)O)cc1S(=O)(=O)O [Compound 76] |  | 622^b nm | 596^b nm | 
35 | C[Si]1(C)c2cc3c(cc2C(NCCCC(=O)O)=c2cc4c(cc21)=[N+](Cc1ccc(S(=O)(=O)O)cc1S(=O)(=O)O)CCC4)CCCN3Cc1ccc(S(=O)(=O)O)cc1S(=O)(=O)O [Compound 95] |  | 661^b nm | 489^b nm | 
36 | O=C(O)CN(CCS(=O)(=O)O)C(=O)c1ccccc1-c1c2cc/c(=N/Cc3ccc(S(=O)(=O)O)cc3S(=O)(=O)O)c(S(=O)(=O)O)c-2oc2c(S(=O)(=O)O)c(NCc3ccc(S(=O)(=O)O)cc3S(=O)(=O)O)ccc12 [Compound 30] | 536^c nm |  |  | 
37 | CN(CCCC(=O)O)C(=O)c1ccccc1-c1c2cc/c(=N/Cc3ccc(S(=O)(=O)O)cc3S(=O)(=O)O)c(S(=O)(=O)O)c-2oc2c(S(=O)(=O)O)c(NCc3ccc(S(=O)(=O)O)cc3S(=O)(=O)O)ccc12.CS(=O)(=O)O [Compound 31] | 532^c nm |  |  | 
